Measurements: US12648943B2, “Treatment of adrenocortical carcinoma with selective glucocorticoid receptor modulators (SGRMs) and antibody checkpoint inhibitors” (Corcept Therapeutics Incorporated, priority 2020, dated 2026)
“Also recorded” adds a separate entry of the source.

Experiments:
[1] = test system: human NK cells; experiment: Activation of isolated human NK cells stimulated with IL-2 (CD25+CD69+ cells); type: cell-based; conditions: NK cells from healthy donors, IL-2 stimulated; cortisol alone or cortisol plus relacorilant; Mann-Whitney p=0.0039
Experimental: (§1) Given the prominent suppression of NK related genes in GC+ cases, the direct effects of GR modulation of human NK cells were assessed. NK cells were isolated from healthy donors and stimulated with IL-2. Activation (abundance of CD25+CD69+ cells) was increased by stimulation, suppressed by cortisol, and restored by relacorilant (Mann-Whitney p=0.0039) (FIG. 11A). […] (FIG. 12D).

[2] = test system: human NK cells; experiment: Proliferation of isolated human NK cells stimulated with IL-2; type: cell-based; conditions: NK cells from healthy donors, IL-2 stimulated; cortisol alone or cortisol plus relacorilant; Mann-Whitney p=0.0099
Experimental: as §1

[3] = test system: human NK cells; experiment: Cytokine secretion by isolated human NK cells stimulated with IL-2; type: cell-based; conditions: for Cytokine secretion (both transcript and secreted protein): cortisol alone or cortisol plus relacorilant
Experimental: as §1

[4] = test system: human NK cells; experiment: Gene expression in isolated human NK cells stimulated with IL-2; type: cell-based; conditions: for Expression of IL2RA (IL2 receptor) / Expression of LAG3 / Transcription of IFNG (IFNγ): IL-2 stimulated human NK cells; for Expression of IL2RA (IL2 receptor) / Expression of LAG3 / Transcription of IFNG (IFNγ) / Expression of 4-1BB (CD137 tnfrsf9): cortisol alone or cortisol plus relacorilant; for Expression of 4-1BB (CD137 tnfrsf9): stimulated human NK cells
Experimental: as §1

[5] = test system: K562 tumor cells; experiment: K562 tumor cell killing by human NK cells in vitro; type: cell-based; conditions: for Tumor cell killing by NK cells at 5:1 ratio: 5:1 effector:tumor cell ratio, Mann-Whitney p=0.004; for Tumor cell killing by NK cells: various NK:tumor cell ratios, cortisol alone or cortisol plus relacorilant
Experimental: Activation, proliferation, and cytokine secretion are all indicative of a functional change in NK cells mediated by cortisol and relacorilant. To determine if this functional change also affected target cell killing, NK cells were incubated with K562 tumor cells. At various NK:tumor cell ratios, cortisol suppressed tumor cell killing and relacorilant restored it (FIG. 13A). […] Thus, glucocorticoids suppress tumor cell killing by human NK cells in vitro.

[6] = test system: tyrosine aminotransferase (TAT) in HepG2 cells; conditions: cited from earlier work
[7] = IL-2 stimulated human NK cells, relacorilant relative to cortisol alone

With C[C@]12CCC(=O)C=C1CC[C@@H]1[C@@H]2[C@@H](O)C[C@@]2(C)[C@H]1CC[C@]2(O)C(=O)CO [cortisol, reference compound] the “NK cell activation (abundance of CD25+CD69+ cells)” value [1] was “suppressed”, the “Proliferation of NK cells” value [2] was “suppressed” and the “Cytokine secretion (both transcript and secreted protein)” value ([3]; IL-2 stimulated human NK cells) was “suppressed”. The “interferon γ (IFNγ) secretion” value [3, 7] was “suppressed”, the “Secretion of other effector cytokines” value ([3]; human NK cells) was “suppressed” and the “Expression of IL2RA (IL2 receptor)” value [4] was “suppressed”. The “Expression of LAG3” value [4] was “suppressed”, the “Transcription of IFNG (IFNγ)” value [4] was “suppressed” and the “Expression of chemokine ligand 3-like 1 (ccl3l1)” value ([4]; stimulated NK cells) was “suppressed”. The “Expression of 4-1BB (CD137 tnfrsf9)” value [4] was “suppressed”, the “Tumor cell killing by NK cells at 5:1 ratio” value [5] was “significant decrease” and the “Tumor cell killing by NK cells” value [5] was “suppressed”.

For CC#C[C@]1(O)CC[C@H]2[C@@H]3CCC4=CC(=O)CCC4=C3[C@@H](c3ccc(N(C)C)cc3)C[C@@]21C [mifepristone], the “Activity of tyrosine aminotransferase (TAT)” value [6] is given as “decreases”.

With Cn1cc(S(=O)(=O)N2CCC3=Cc4c(cnn4-c4ccc(F)cc4)C[C@]3(C(=O)c3cc(C(F)(F)F)ccn3)C2)cn1 [relacorilant, (R)-(1-(4-fluorophenyl)-6-((1-methyl-1H-pyrazol-4-yl)sulfonyl)-4,4a,5,6,7,8-hexahydro-1H-pyrazolo[3,4-g]isoquinolin-4a-yl)(4-(trifluoromethyl)pyridin-2-yl)methanone] the “NK cell activation (abundance of CD25+CD69+ cells)” value [1] was “restore; also recorded: significantly improved”, the “Proliferation of NK cells” value [2] was “restore; also recorded: significantly improved” and the “Cytokine secretion (both transcript and secreted protein)” value ([3]; IL-2 stimulated human NK cells) was “restored”. The “Granzyme A secretion” value [3, 7] was “improved”, the “interferon γ (IFNγ) secretion” value [3, 7] was “improved” and the “tumor necrosis factor (TNFα) secretion” value [3, 7] was “improved”. For the same molecule, the “Expression of IL2RA (IL2 receptor)” value [4] was “restored; also recorded: improved”, the “Expression of LAG3” value [4] was “restored; also recorded: promoted; also recorded: improved” and the “Transcription of IFNG (IFNγ)” value [4] was “improved”. For the same molecule, the “Expression of 4-1BB (CD137 tnfrsf9)” value [4] was “promoted”, the “Tumor cell killing by NK cells at 5:1 ratio” value [5] was “significant improvement; also recorded: counteracted” and the “Tumor cell killing by NK cells” value [5] was “restore; also recorded: counteracted”.
